Entries after “also recorded” stand apart in the source; their conditions may differ.
Assays:
Format in all cases: cell-based
[1] = test system: human pancreatic islets; assay: ATP levels in cultured human pancreatic islets (luciferin/luciferase luminescence)
Method: (§1) In each sample, the islets were allowed to settle at 1×g in a sterile centrifuge tube. Once the islets had settled, the supernatant was removed and replaced with 2 ml of media. Control samples of islets (Samples 2 and 4) were placed in the control media (i.e., CMRL-1066 media containing 10% bovine serum, 1% penicillin/streptomycin/amphotericin B, and 2 mM glutamine) and experimental samples of islets (Samples 3 and 5) were incubated with the control media to which 50 μg/ml IKVAV-containing peptide such as the PA22-2 (SEQ ID NO. 1) peptide had been added. The IKVAV-containing peptides are hereinafter referred to as laminin A chain peptide. […]
(§2) Samples 2 and 3 were transferred to standard culture dishes (petri dishes) at a cell density of approximately 200 islets/ml. […] After the Samples 2-5 had been cultured for 7 days, the islets were removed from the culture dish or RCCS bioreactor vessel and assessed for aggregation, apoptosis and ATP levels.
Islet ATP levels were measured by luciferin/luciferase luminescence. […] The cells were pelleted by centrifugation and 10 μl of the lysed cell supernatant was placed in a luminescence multiwell plate with 90 μl of reaction solution (25 mM Tricine pH 7.8, 5 mM MgSO4, 0.1 mM EDTA, 0.1 mM sodium azide with 0.5 mM lucifirin, 1 mM DTT and 12.5 μg of firefly luciferase). […]
The data from four experiments was analyzed by a one-way ANOVA. […]

[2] = test system: human pancreatic islets; assay: Aggregation of high-density pancreatic islets in culture (RCCS bioreactor or petri dish)
Method: It is hypothesized that synthetic peptides containing the IKVAV peptide sequence (SEQ ID NO. 2) can inhibit the aggregation of islets cultures in the RCCS bioreactor. Experiments were performed to compare the aggregation of about 200-300 islets/ml cultured in the presence and absence of each peptide to be tested. Initial experiments added the peptide to the culture media in a small (10 ml) RCCS bioreactor vessel. It was realized that providing a large volume of culture media with sufficient concentrations of the PA22-2 peptide or another IKVAV-containing peptide component of laminin would be prohibitively expensive. Thus, the experimental protocol was altered as described below.
as §1, §2
An aliquot of islets from each sample was fixed by washing the islets two times in phosphate buffered saline (PBS) and then transferring the washed samples to a 4% paraformaldehyde solution for 2 hours to fix the islets. […] The islets were analyzed for their, degree of aggregation by digitizing ten microscopic fields and measuring the cross sectional areas of the islets within each field with the image processing program NIH Image. […]

[3] = test system: caspase 3 activity in cultured human pancreatic islets; assay: Caspase 3 activity (apoptosis) in cultured human pancreatic islets
Method: (§3) In each sample, the islets were allowed to settle at 1×g in a sterile centrifuge tube. Once the islets had settled, the supernatant was removed and replaced with 2 ml of media. Control samples of islets (Samples 2 and 4) were placed in the control media (i.e., CMRL-1066 media containing 10% bovine serum, 1% penicillin/streptomycin/amphotericin B, and 2 mM glutamine) and experimental samples of islets (Samples 3 and 5) were incubated with the control media to which 50 μg/ml IKVAV-containing peptide such as the PA22-2 (SEQ ID NO. 1) peptide had been added. The IKVAV-containing peptides are hereinafter referred to as laminin A chain peptide.
(§4) All four samples were gently mixed and placed in a humidified incubator for 3 hours at 37° C. At half hour intervals, the tubes containing the samples were gently inverted to prevent aggregation of the islet pellet.
as §2, with “dishes) at a cell density of approximately 200 islets/ml. Samples 4 and 5 were transferred to 35 ml perfused RCCS bioreactor vessels” for “dishes)”, “levels. […]” for “levels.”
Fifty microliters of the lysed cell supernatant from each sample was transferred into a microplate well. […] The free rhodamine was measured by fluorescence (excitation/emission-496/520 nm). The fluorescence was quantitated using arbitrary fluorescence units derived by normalizing the rhodamine fluorescence to the quantity of DNA in the islet sample, which is directly proportional to cell number.
Experiments were performed to compare islet caspase 3 activity in islets cultured in conventional petri dishes (labeled in FIG. 3 as Dish) with islets preincubated with the laminin A chain peptide PA22-2 and cultured in an RCCS bioreactor (labeled in FIG. 3 as RCCS+ laminin). […] The data from four experiments was analyzed by a one-way ANOVA. Differences between the groups were determined by the Student-Newman Keuls test.

[4] = test system: human pancreatic islets; assay: H & E stained thin sections of cultured human islets; conditions: preincubated with peptide, 7 days in RCCS bioreactor; compared with petri dish control
Method: as §3, §4
Samples 2 and 3 were transferred to standard culture dishes (petri dishes) at a cell density of approximately 200 islets/ml. Samples 4 and 5 were transferred to 35 ml perfused RCCS bioreactor vessels at a cell density of approximately 200 islets/ml. All of the samples (Samples 2-5) were then cultured for 7 days. After the Samples 2-5 had been cultured for 7 days, the islets were removed from the culture dish or RCCS bioreactor vessel and assessed for aggregation, apoptosis and ATP levels. […]

CYS-SER-ARG-ALA-ARG-LYS-GLN-ALA-ALA-SER-ILE-LYS-VAL-ALA-VAL-SER-ALA-ASP-ARG (CSRARKQAASIKVAVSADR; laminin A chain) [PA22-2, 19 amino acid synthetic peptide containing residues 2091-2108 of the laminin A chain, IKVAV-containing]
ATP levels ([1]; RCCS+laminin (Sample 5): preincubated with peptide, 7 days RCCS, vs Dish control (Sample 2), p<0.05, n=4): significantly higher ATP levels
ATP levels ([1]; Sample 3: preincubated 3 hours with 50 μg/ml peptide, 7 days petri dish, vs Dish control (100%), n=4): tended to have higher ATP levels but the values did not have a p value less than 0.05
aggregation inhibiting activity ([2]; peptide added to RCCS-cultured islets, cell density about 200-300 islets/ml): showed substantial aggregation inhibiting activity
adherence of islets to petri dish ([2]; peptide left in the media during the entire culture period, petri dish): caused the petri dish control islets to adhere to the non-stick petri dishes
degree of aggregation of islets ([2]; preincubated 3 hours with 50 μg/ml peptide, then seven-day culture in RCCS bioreactor, compared with no peptide): lower degree of aggregation; also recorded: sufficient to prevent aggregation of the islets in the RCCS bioreactor; also recorded: beneficial in preventing islet aggregation
caspase 3 activity ([3]; Dish+ laminin: preincubated 3 hours with 50 μg/ml peptide, 7 days petri dish, vs Dish control (100%), n=4): slightly lower caspase 3 activity but the values did not have a p value less than 0.05; also recorded: no significant effect on islet caspase 3 activity
caspase 3 activity ([3]; RCCS+ laminin (Sample 5): preincubated 3 hours with 50 μg/ml peptide, 7 days RCCS, vs RCCS-cultured islets without peptide (Sample 4)): less caspase 3 activity than the RCCS-cultured islets of Sample 4
caspase 3 activity ([3]; RCCS+ laminin: preincubated 3 hours with 50 μg/ml peptide, 7 days RCCS, vs Dish control, p<0.05, n=4): significantly less caspase 3 activity than did the dish-cultured islets
islet structure / membrane integrity (H & E thin sections) [4]: maintained their membrane integrity and appeared to be healthy and viable

Source: US7507581B2, “Inhibition of pancreatic islet aggregation” (Synthecon, Inc., priority 2005, dated 2009)
